In publication PMC12419465, “Photoresponsive molecular tweezers modulate Taspase 1 activity” (RSC Chemical Biology, 2025):
Read-outs that look alike come from different tables or passages of the source.

Tests used:
[1] = Photoisomerization: photostationary states by 1H NMR, switching cycles by UV-vis; type: physicochemical; settings: for PSS E→Z, photostationary state: UV 365 nm; for PSS Z→E, photostationary state: green light 520 nm
Description: Tweezer constructs were synthesized as an E/Z mixture, with a strong preference for the thermodynamically stable E isomer. For photoisomerization, UV-vis spectra of TWAAP and TWAB (50 μM in water) were recorded in their initial state. The constructs were then isomerized to the Z isomer with UV light (λ = 365 nm, 1 min) and back to the E isomer with green light (λ = 520 nm, 5 min). Two light sources were used: UV LED HighPower-LED with 3 W of λ = 365 nm (LED Engin Inc., San Jose, California, US) and a LSC-G HighPower-LED with 3 W of λ = 520 nm (Cree Inc., Durham, North Carolina, US). UV-vis spectroscopy was routinely employed to analyze the tweezer constructs, serving as the method of choice to monitor configurational integrity after multiple switching cycles. More than 10 switching cycles were performed without any loss of configurational integrity. The UV-vis spectra were recorded with a JASCO V-650 double-beam spectrophotometer (JASCO).
The photophysical properties of AAP tweezers TWAAP0-4 as well as those of AZO tweezers TWAB1-2 were consistent with previous reports on these photoswitches. […] The two isomers are easily distinguished by the significant difference in their absorption bands (Fig. 2 and Fig. S4a, b). […] Irradiation with green light further increases the concentration of the E isomer, as confirmed by both UV/vis and NMR spectra. The switching process can be repeated for over 10 cycles without loss of configurational integrity or photodegradation of the tweezer. […] (Fig. 2 and Table S1).
Supplementary Table S1. Photostationary states (PSSE→Z and PSSZ→E) and half-life of Z isomers of
respectively. n.d., not determinable.
TW construct PSSE→Z [%] PSSZ→E [%] […]

[2] = biological target: T1, Cy5-labeled Taspase 1 loop (Homo sapiens, UniProt Q9H6P5); experiment: Fluorescence titration of Cy5-labeled Taspase 1 loop; type: binding; settings: for Kd: 1:1 binding model, n = 3, read-out: KD TW (fluorescence titration, loop)
T1 construct: Cy5-labeled NLS-bearing loop peptide (aa S181-D233); purchased GeneCust; host or cells: synthetic peptide
T1 sequence (Q9H6P5 181-233): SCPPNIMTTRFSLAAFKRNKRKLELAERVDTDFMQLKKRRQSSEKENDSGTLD
Description: Fluorescence titration was conducted with a Taspase 1 loop with an N-terminal […] synthesized by GeneCust (Sequence: Cy5-[…]; NLS in bold) as described.[9,10] The fluorescence anisotropy assay was modified based on previously established protocols.[51] Measurements were conducted using an FP-8300 JASCO fluorescence spectrometer (JASCO GmbH). […] Binding curves of the average data were fitted with GraphPad Prism 10.4 (GraphPad) using the quadratic binding equation for one-site specific binding model: [drawing 4] with r = anisotropy, r0 = anisotropy without protein, rmax = maximum anisotropy, F = fluorescent probe (Cy5-labeled peptide) concentration, x = titrant concentration, KD = dissociation constant. All fitting curves have R^2-values between 0.88 and 0.98.
Since Importin binding critically depends on the basic NLS clusters within the Taspase 1 loop, pull-down assays typically provide a reliable readout for tweezer interaction with the relevant lysine and arginine residues. Alternatively, loop binding can be evaluated through ligand titration experiments using a fluorescently labeled Taspase 1 loop (Fig. 5).[10] […] As a result, potential effects related to the orientation of the flexible loop within the context of the globular protein are not captured. Of note, the slight increase in signal at the highest compound concentration likely reflects non-specific effects such as weak autofluorescence, inner filter artifacts, or molecular crowding, highlighting limitations of the assay at this range. Despite these effects, the data points were retained to provide a complete representation of the assay response.
Fig. 5 TWAAP ligands directly address the Taspase 1 loop. Fluorescence titrations were performed using a Cy5-labeled Taspase 1 loop and switchable tweezers. […] Fluorescence intensity in solvent-treated samples was set to 100%, with ligand-treated samples normalized to this value. […] As a control, all ligands were added to Cy5 (without peptide) at their highest concentration, resulting in neglectable changes in fluorescence. Data represent the mean ± SD of three independent experiments. Composed with https://Biorender.com.

[3] = biological target: T2, full-length, proteolytically inactive Taspase 1 (Homo sapiens, UniProt Q9H6P5, D233A/T234A); experiment: Surface plasmon resonance on immobilized full-length, inactive Taspase 1; type: binding; settings: for ka / kd: Table S3, n = 2
T2 sequence (Q9H6P5 1-420 D233A/T234A): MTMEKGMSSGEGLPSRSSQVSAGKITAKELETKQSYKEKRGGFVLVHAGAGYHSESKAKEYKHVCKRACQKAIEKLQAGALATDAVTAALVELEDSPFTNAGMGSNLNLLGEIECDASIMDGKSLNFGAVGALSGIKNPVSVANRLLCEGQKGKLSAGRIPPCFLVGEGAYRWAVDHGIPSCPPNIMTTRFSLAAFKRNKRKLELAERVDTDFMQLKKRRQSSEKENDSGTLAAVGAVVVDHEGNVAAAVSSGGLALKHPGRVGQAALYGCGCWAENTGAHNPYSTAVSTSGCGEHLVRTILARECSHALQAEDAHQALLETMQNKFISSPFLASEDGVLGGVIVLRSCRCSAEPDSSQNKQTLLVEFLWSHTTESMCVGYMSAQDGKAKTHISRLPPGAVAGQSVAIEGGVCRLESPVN
Description: SPR measurements were conducted as described.[9,10]
First, we utilized an established surface plasmon resonance (SPR) assay to evaluate the overall binding of our ligands to Taspase 1 (Fig. 3).[10,54] […] High affinities were observed, with KD values in the single micromolar range (Fig. 3, and Table S2).
Fig. 3 Photoswitchable tweezer constructs bind Taspase 1 with SPR binding affinities in the low micromolar range. […] Duplicate measurements were performed, with the respective curves shown in the same colour at different brightness levels (right). […] KD values (Table S2) were determined through kinetic evaluation by fitting the individual curves to a 1 : 1 binding model. Detailed SPR data are provided in the SI (Table S3). Composed with https://BioRender.com. […] No printed text gives the condition. In each entry the first value is the upper row and the second is the lower row.
Supplementary Table S3. Kinetic parameters of photoswitchable tweezer constructs as determined by SPR (see Fig. 3). Values were derived from fitted sensorgrams with a 1:1 two state binding model from n = 2 measurements for the indicated constructs. Analysis was performed using the Trace Drawer software 1.9.2 (TraceDrawer Software, Sweden). […]

[4] = E enriched isomer, Table S2, read-out: KD (E)
[5] = Z enriched isomer, Table S2, read-out: KD (Z)
[6] = Z isomer, ligand conc. 0.06 - 25 µM, Table S4, read-out: KD TW (SPR, full-length protein)
[7] = E isomer, ligand conc. 0.06 - 25 µM, Table S4, read-out: KD TW (SPR, full-length protein)

Cc1nn(-c2ccc(C#Cc3ccc(-c4cn(CCOP(=O)(O)Oc5c6c(c(OP(=O)(O)O)c7c5C5CC7c7cc8c(cc75)C5CC8c7ccccc75)C5CC6c6cc7c(cc65)C5CC7c6ccccc65)nn4)cc3)cc2)c(C)c1N=Nc1ccc(C#Cc2ccc(-c3cn(CCOP(=O)(O)Oc4c5c(c(OP(=O)(O)O)c6c4C4CC6c6cc7c(cc64)C4CC7c6ccccc64)C4CC5c5cc6c(cc54)C4CC6c5ccccc54)nn3)cc2)cc1 [TWAAP4]
PSS E→Z, photostationary state [1]: 67% | PSS Z→E, photostationary state [1]: 97% | Kd ([2]; E isomer): 800 nM | Loop binding, in words ([2]; Z isomer): only a weak loop binder | Kd ([2]; Z isomer): 4900 nM | Kd [3, 4]: 2900 nM | Kd [3, 5]: 1960 nM | Kd [3, 6]: 2000 nM | ka ([3]; isomer E): 4690 ± 1260 M⁻¹ s⁻¹ | kd ([3]; isomer E): 0.00918 ± 4.22e-06 s⁻¹ | ka ([3]; isomer Z): 3340 ± 688 M⁻¹ s⁻¹ | kd ([3]; isomer Z): 0.00967 ± 4.04e-06 s⁻¹

Cc1nn(-c2ccc(-n3cc(CCOP(=O)(O)Oc4c5c(c(OP(=O)(O)O)c6c4C4CC6c6cc7c(cc64)C4CC7c6ccccc64)C4CC5c5cc6c(cc54)C4CC6c5ccccc54)nn3)cc2)c(C)c1N=Nc1ccc(-n2cc(CCOP(=O)(O)Oc3c4c(c(OP(=O)(O)O)c5c3C3CC5c5cc6c(cc53)C3CC6c5ccccc53)C3CC4c4cc5c(cc43)C3CC5c4ccccc43)nn2)cc1 [TWAAP0]
PSS E→Z, photostationary state [1]: 87% | PSS Z→E, photostationary state [1]: 89% | Kd ([2]; E isomer): 200 nM | Kd ([2]; Z isomer): 300 nM | Kd [3, 4]: 710 nM | SPR signal ([3]; E isomer): approximately 300 μRIU | association rate constant (ka) ([3]; E isomer): 1.04 × 10^3 M^1 s^1 | dissociation rate constant (kd) ([3]; E isomer): 0.000743 s⁻¹ | Kd [3, 7]: 700 nM | Kd [3, 5]: 2870 nM | SPR signal ([3]; Z isomer): approximately 300 μRIU | association rate constant (ka) ([3]; Z isomer): 1.12 × 10^3 M^1 s^1 | dissociation rate constant (kd) ([3]; Z isomer): 0.00322 s⁻¹ | Kd [3, 6]: 2900 nM | ka ([3]; isomer E): 1120 ± 34 M⁻¹ s⁻¹ | kd ([3]; isomer E): 0.00322 ± 7.17e-07 s⁻¹ | ka ([3]; isomer Z): 1040 ± 20.5 M⁻¹ s⁻¹

O=P(O)(O)Oc1c2c(c(OP(=O)(O)OCCn3cc(-c4ccc(N=Nc5ccc(-c6cn(CCOP(=O)(O)Oc7c8c(c(OP(=O)(O)O)c9c7C7CC9c9cc%10c(cc97)C7CC%10c9ccccc97)C7CC8c8cc9c(cc87)C7CC9c8ccccc87)nn6)cc5)cc4)nn3)c3c1C1CC3c3cc4c(cc31)C1CC4c3ccccc31)C1CC2c2cc3c(cc21)C1CC3c2ccccc21 [TWAB1]
PSS E→Z, photostationary state [1]: 63% | PSS Z→E, photostationary state [1]: 61% | Kd [3, 4]: 9320 nM | Kd [3, 7]: 9300 nM | Kd [3, 5]: 9200 nM | ka ([3]; isomer E): 596 ± 116 M⁻¹ s⁻¹ | kd ([3]; isomer E): 0.000548 ± 2.4e-05 s⁻¹

Cc1nn(-c2ccc(-c3cn(CCOP(=O)(O)Oc4c5c(c(OP(=O)(O)O)c6c4C4CC6c6cc7c(cc64)C4CC7c6ccccc64)C4CC5c5cc6c(cc54)C4CC6c5ccccc54)nn3)cc2)c(C)c1N=Nc1ccc(-c2ccc(-c3cn(CCOP(=O)(O)Oc4c5c(c(OP(=O)(O)O)c6c4C4CC6c6cc7c(cc64)C4CC7c6ccccc64)C4CC5c5cc6c(cc54)C4CC6c5ccccc54)nn3)cc2)cc1 [TWAAP3]
PSS E→Z, photostationary state [1]: 84% | PSS Z→E, photostationary state [1]: 92% | Kd ([2]; E isomer): 400 nM | Kd ([2]; Z isomer): 600 nM | Kd [3, 4]: 4050 nM | SPR signal ([3]; E isomer): approximately 120 μRIU | association rate constant (ka) ([3]; E isomer): 3.81 × 10^3 M^1 s^1 | dissociation rate constant (kd) ([3]; E isomer): 1.53 × 10^−2 s^1 | Kd [3, 7]: 4100 nM | Kd [3, 5]: 2670 nM | SPR signal ([3]; Z isomer): about 500 μRIU | association rate constant (ka) ([3]; Z isomer): 9.57 × 10^2 M^1 s^1 | dissociation rate constant (kd) ([3]; Z isomer): 2.56 × 10^−3 s^1 | Kd [3, 6]: 2700 nM | ka ([3]; isomer E): 957 ± 56.1 M⁻¹ s⁻¹ | kd ([3]; isomer E): 0.00256 ± 4.04e-06 s⁻¹ | ka ([3]; isomer Z): 3810 ± 2090 M⁻¹ s⁻¹ | kd ([3]; isomer Z): 0.0153 ± 2.5e-05 s⁻¹

Cc1nn(Cc2cn(CCOP(=O)(O)Oc3c4c(c(OP(=O)(O)O)c5c3C3CC5c5cc6c(cc53)C3CC6c5ccccc53)C3CC4c4cc5c(cc43)C3CC5c4ccccc43)nn2)c(C)c1N=Nc1ccc(-c2cn(CCOP(=O)(O)Oc3c4c(c(OP(=O)(O)O)c5c3C3CC5c5cc6c(cc53)C3CC6c5ccccc53)C3CC4c4cc5c(cc43)C3CC5c4ccccc43)nn2)cc1 [TWAAP2]
PSS E→Z, photostationary state [1]: 94% | PSS Z→E, photostationary state [1]: 77% | Kd ([2]; E isomer): 300 nM | Kd ([2]; Z isomer): 300 nM | Kd [3, 4]: 5670 nM | Kd [3, 7]: 5700 nM | Kd [3, 5]: 4280 nM | Kd [3, 6]: 4300 nM | ka ([3]; isomer E): 1170 ± 96.4 M⁻¹ s⁻¹ | kd ([3]; isomer E): 0.00501 ± 9.88e-07 s⁻¹ | ka ([3]; isomer Z): 750 ± 76.2 M⁻¹ s⁻¹ | kd ([3]; isomer Z): 0.00426 ± 1.03e-06 s⁻¹
